# According to publication PMC12471299, “Secondary Metabolites of the Marine Sponge-Derived Fungus Aspergillus subramanianii 1901NT-1.40.2 and Their Antimicrobial and Anticancer Activities” (Marine Drugs, 2025):
# Read-outs that look alike come from different tables or passages of the source.
# Key:
# [1] = test system: Candida albicans KMM 455; test: Antimicrobial assay, growth inhibition (optical density); type: cell-based
# Method: (§1) The Gram-positive bacterial Staphylococcus aureus ATCC 21027, Gram-negative bacterial Escherichia coli VKPM (B-7935), and yeast-like fungal Candida albicans KMM 455 strains were fermented on solid medium Mueller Hinton broth with agar (16.0 g/L) in a Petri dish at 37 °C for 24 h. The antimicrobial activity of the compound was tested at concentrations ranging from 100 µM and lower. The effect of the compound on bacterial growth was estimated as described by. Gentamicin and amphotericin B were used as positive controls against S. aureus, E. coli, and C. albicans, and a 1% dimethyl sulfoxide (DMSO) solution in PBS was used as a negative control. The optical density of the bacterial suspension after 18 h was measured at λ = 620 nm. The effect of the compound on biofilm formation for 18 h was tested using MTT reagent (Sigma-Aldrich, St. Louis, MO, USA) in accordance with. The optical density of the obtained solution was measured at λ = 570 nm. A Multiskan FS spectrophotometer (Thermo Scientific Inc., Beverly, MA, USA) was used for both assays. The results were calculated as percentages of the control data and presented as minimal concentrations reduced by 50% of growth or biofilm formation (MIC50).
# [2] = test system: Staphylococcus aureus ATCC 21027; test: as above; type: cell-based; conditions: Staphylococcus aureus
# Method: as §1
# [3] = test system: Escherichia coli VKPM (B-7935); test: as above; type: cell-based
# Method: as §1
# [4] = test system: MDA-MB-231 breast cancer cells; test: Cell viability assay (MTT); type: cell-based, human
# Source text: (§2) Rat cardiomyocyte H9c2 cells were kindly provided by Prof. Dr. Gunhild von Amsberg from the Martini-Klinik Prostate Cancer Center, University Hospital Hamburg-Eppendorf, Hamburg, Germany. The human HaCaT keratinocyte cell line was kindly provided by Prof. N. Fusenig (Cancer Research Centre, Heidelberg, Germany). Non-cancerous human breast epithelial MCF-10A cells were kindly provided by Dr. Irina Zhitnyak (N. N. Blokhin National Medical Research Center of Oncology, Moscow, Russia). Human breast cancer MCF-7 HTB-22 and MDA-MB-231 cells were obtained from the ATTC (Manassas, VA, USA).
# (§3) H9c2 and HaCaT cells were cultured in DMEM with 10% fetal bovine serum and 1% penicillin/streptomycin (BioloT, St. Petersburg, Russia). MCF-7 and MDA-MB-231 cells were cultured in MEM (BioloT, St. Petersburg, Russia) with 10% fetal bovine serum (FBS) and 1% penicillin/streptomycin (BioloT, St. Petersburg, Russia). MCF 10A cells were cultured in DMEM F12 medium (BioloT, St. Petersburg, Russia) supplemented with 20% FBS, 20 ng/mL hrEGF (Sci-Store, Moscow, Russia), and 1% penicillin/streptomycin (BioloT, St. Petersburg, Russia). All cells were cultured at 37 °C in a humidified atmosphere containing 5% CO2.
# (§4) H9c2 cells were seeded at a concentration of 3 × 10^3 cells/well. MCF-10A, MCF-7, and MDA-MB-231 cells were seeded at 5 × 10^3 cells/well, and HaCaT cells were seeded at 1 × 10^4 cells/well. The experiments were initiated after 24 h.
# (§5) Compounds at concentrations up to 100 µM were added to the wells for 24h or 48 h, and the viability of the cells was measured using an MTT (3-(4,5-dimethylthiazol-2-yl)-2,5-diphenyltetrazolium bromide) assay, which was performed according to the manufacturer’s instructions (Sigma-Aldrich, Munich, Germany). […] DMSO was used as a control. The results are presented as percentages of the control data.
# [5] = test system: MCF-10A breast epithelial cells; test: Cell viability assay (MTT); type: cell-based, human; conditions: MCF10A
# Source text: as §2, §3, §4, §5
# [6] = Cell viability assay (MTT); type: cell-based, human; conditions: human, read-out: Cytotoxicity IC50
# Source text: as §2, §3, §4, §5
# [7] = test system: MCF-7 breast cancer cells; test: Cell viability assay (MTT); type: cell-based, human
# Source text: as §2, §3, §4, §5
# [8] = test system: HaCaT keratinocytes; test: Cell viability assay (MTT); type: cell-based, human
# Source text: as §2, §3, §4, §5
# [9] = test system: Candida albicans KMM 455; test: Biofilm formation assay (MTT); type: cell-based
# Method: as §1
# [10] = test system: Staphylococcus aureus ATCC 21027; test: Biofilm formation assay (MTT); type: cell-based
# Method: as §1
# [11] = test system: Escherichia coli VKPM (B-7935); test: Biofilm formation assay (MTT); type: cell-based
# Method: as §1
# [12] = Cell viability assay (MTT); type: cell-based, rat; conditions: rat, H9c2 cardiomyocytes, read-out: Cytotoxicity IC50
# Source text: as §2, §3, §4, §5
# [13] = test system: H9c2 cardiomyocytes; test: Cell viability assay (MTT); type: cell-based, rat
# Source text: as §2, §3, §4, §5
compound,measurement,setting,value
"COc1c(OC)c(-c2c[nH]c3ccccc23)c(OC)c(OC)c1-c1c[nH]c2ccccc12 [Compound 7, asterriquinol D dimethyl ether]",MIC50,"[1]; Candida albicans, KMM455, 18 h, C. albicans, 18 h",> 100 µM
same,effect on C. albicans growth,[1]; at / up to 100 µM,did not affect
same,MIC50,"[2]; ATCC21027, 18 h, S. aureus, 18 h",> 100 µM
same,inhibition at 100 µM,"[2]; ATCC21027, at 100 µM, read-out: inhibition of S. aureus growth",42.2 ± 2.07%
same,MIC50,"[3]; Escherichia coli, 18 h, E. coli",> 100 µM
same,effect on E. coli growth,[3]; at / up to 100 µM,did not affect
same,cell viability,"[4]; MDA-MB-231, 24 h, 1.0 µM",102.7 ± 1.6 % of control
same,cell viability,"[4]; MDA-MB-231, 24 h, 10.0 µM",75.9 ± 4.8 % of control
same,cell viability,"[4]; MDA-MB-231, 24 h, 100.0 µM",53.6 ± 4.2 % of control
same,cell viability,"[4]; MDA-MB-231, 48 h, 1.0 µM",99.8 ± 3.7 % of control
same,cell viability,"[4]; MDA-MB-231, 48 h, 10.0 µM",82.9 ± 6.3 % of control
same,cell viability,"[4]; MDA-MB-231, 48 h, 100.0 µM",43.5 ± 2.5 % of control
same,cell viability,"[5]; 24 h, 1.0 µM",102.7 ± 5.1 % of control
same,cell viability,"[5]; 24 h, 10.0 µM",100.2 ± 3.8 % of control
same,cell viability,"[5]; 24 h, 100.0 µM",59.6 ±2.1 % of control
same,cell viability,"[5]; 48 h, 1.0 µM",97.7 ± 1.4 % of control
same,cell viability,"[5]; 48 h, 10.0 µM",93.1 ± 3.6 % of control
same,cell viability,"[5]; 48 h, 100.0 µM",78.9 ± 5.7 % of control
same,IC50 at 24 h,"[6]; HaCaT keratinocytes, 24 h",> 100 µM
same,IC50 at 48 h,"[6]; HaCaT keratinocytes, 48 h",80.5 ± 1.8 µM
same,IC50 at 24 h,"[6]; MCF-7 breast cancer cells, MCF-7, 24 h",> 100 µM
same,IC50 at 48 h,"[6]; MCF-7 breast cancer cells, MCF-7, 48 h",79.1 ± 2.4 µM
same,IC50 at 24 h,"[6]; MCF-10A breast epithelial cells, MCF10A, 24 h",> 100 µM
same,IC50 at 48 h,"[6]; MCF-10A breast epithelial cells, MCF10A, 48 h",> 100 µM
same,IC50 at 24 h,"[6]; MDA-MB-231 breast cancer cells, MDA-MB-231, 24 h",> 100 µM
same,IC50 at 48 h,"[6]; MDA-MB-231 breast cancer cells, MDA-MB-231, 48 h",85.1 ± 1.5 µM
same,cell viability,"[7]; MCF-7, 24 h, 1.0 µM",99.4 ± 4.4 % of control
same,cell viability,"[7]; MCF-7, 24 h, 10.0 µM",65.4 ± 2.9 % of control
same,cell viability,"[7]; MCF-7, 24 h, 100.0 µM",56.0 ± 4.5 % of control
same,cell viability,"[7]; MCF-7, 48 h, 1.0 µM",91.5 ± 6.3 % of control
same,cell viability,"[7]; MCF-7, 48 h, 10.0 µM",70.0 ± 5.2 % of control
same,cell viability,"[7]; MCF-7, 48 h, 100.0 µM",43.9 ± 3.5 % of control
same,cell viability,"[8]; 24 h, 1.0 µM",100.7 ± 3.8 % of control
same,cell viability,"[8]; 24 h, 10.0 µM",85.6 ± 7.6 % of control
same,cell viability,"[8]; 24 h, 100.0 µM",64.1 ± 3.2 % of control
same,cell viability,"[8]; 48 h, 1.0 µM",94.2 ± 8.7 % of control
same,cell viability,"[8]; 48 h, 10.0 µM",78.1 ± 6.4 % of control
same,cell viability,"[8]; 48 h, 100.0 µM",40.1 ± 2.9 % of control
same,"Biofilm formation, MIC50","[9]; C. albicans, 18 h",>100 µM
same,effect on C. albicans biofilm formation,[9]; at 100 µM,did not affect
same,"Biofilm formation, MIC50","[10]; S. aureus, 18 h",>100 µM
same,effect on S. aureus biofilm formation,[10]; at / up to 100 µM,did not affect
same,"Biofilm formation, MIC50","[11]; E. coli, 18 h",>100 µM
same,effect on E. coli biofilm formation,[11]; at / up to 100 µM,did not affect
same,IC50 at 24 h,"[12]; H9c2, 24 h",> 100 µM
same,IC50 at 48 h,"[12]; H9c2, 48 h",69.9 ± 2.3 µM
same,cell viability,"[13]; H9c2, 24 h, 1.0 µM",101.5 ± 1.3 % of control
same,cell viability,"[13]; H9c2, 24 h, 10.0 µM",76.9 ± 2.8 % of control
same,cell viability,"[13]; H9c2, 24 h, 100.0 µM",59.0 ± 5.3 % of control
same,cell viability,"[13]; H9c2, 48 h, 1.0 µM",102.8 ± 7.6 % of control
same,cell viability,"[13]; H9c2, 48 h, 10.0 µM",76.3 ± 3.9 % of control
same,cell viability,"[13]; H9c2, 48 h, 100.0 µM",32.8 ± 1.4 % of control
